Reference: patent US12497358B2, “Inhibitor of EIF2α dephosphorylation” (THE ROYAL INSTITUTION FOR THE ADVANCEMENT OF …, priority 2021, dated 2025)

Legend:
[1] = test system: MuSCs isolated from skeletal muscle of Dmd^mdx mice; assay: Ex vivo culture of MuSCs from Dmd^mdx mice: PAX7 expression, myocolony size, fusion index; format: cell-based
Method: (§1) Moreover, cells and single EDL myofibres were cultured in 39% Dulbecco's modified eagle medium (DMEM), 39% F12, 20% fetal calf serum (FCS) (Life Technologies), 2% UltroserG™ (Pall Life Sciences). C2C12 myoblasts were cultured in DMEM supplemented with 20% FCS. When indicated, culture conditions were supplemented with 0.1% dimethylsulfoxide (DMSO control, Sigma), 10 μM sal003 (Sigma), or 0.1-0.2 μM C15.
PAX7 expression marks MuSCs that retained stem cell properties to regenerate muscle. Under normal culture conditions, PAX7-expression is down regulated as MuSCs differentiate and lose their stem cell properties to regenerate muscle. […] Conceptually, these ex vivo results support a model by which pharmacological interventions that promote MuSC expansion (FIG. 10A, FIG. 10B, and FIG. 11) in the short term will lead to improved muscle mass and strength in the long term.
(§2) Immunoassays were also performed to further confirm the effect of C15 on the dephosphorylation of elF2α. For immunofluorescence, cultured satellite cells were fixed in 4% paraformaldehyde (PFA), permeabilized with 0.2% Triton™, 50 mM NH4Cl and blocked in 5% horse serum (HS). Single EDL myofibers were fixed with 4% PFA, permeabilized with 0.1% Triton™ in PBS and blocked in 5% horse serum (HS) with 0.1% Triton™ in PBS. TA muscles were fixed for 2 hr in 0.5% PFA at 4° C. and equilibrated overnight in 20% sucrose at 4° C. Tissues were mounted in Frozen Section Compound (VWR) and flash frozen in a liquid nitrogen-cooled isopentane bath. Transverse sections (10 μm) were permeabilized with 0.1% Triton™, 0.1M Glycine in PBS, and blocked in Mouse on Mouse (M.O.M.) reagent (Vector Labs).

[2] = test system: PAX7-expressing muscle stem cells (MuSCs); assay: DDX6-positive RNA granules in PAX7-expressing MuSCs, ex vivo culture, immunofluorescence; format: cell-based, mice
Method: as §1
P-elF2α is required for the assembly of DDX6-positive(+) RNA granules in quiescent and self-renewing satellite cells. Activated muscle stem cells (MuSCs) dephosphorylate elF2α, RNA granules disassemble, and the myogenic program is activated.
as §2, with “Transverse sections (10 μm) were permeabilized with 0.1% Triton™, 0.1M Glycine in PBS, and blocked in Mouse on Mouse (M.O.M.) reagent (Vector Labs).” left out

[3] = test system: elF2α phosphorylation in C2C12 cells; assay: Immunoblot of P-elF2α and total elF2α in C2C12 cell lysates; format: cell-based
Method: as §1
For immunoblotting, cell lysates were obtained in RIPA buffer (ThermoFischer Scientific) supplemented with complete protease inhibitor cocktail (Roche) and phosphatase inhibitor cocktail (Sigma). The primary antibodies used were against PAX7 (DHSB), LAMININ (Sigma L9393), MYOG (Abcam 124800 and Santacruz sc-12732), and β-ACTIN (Sigma A5441). Alexa™ Fluor-488, Alexa™ Fluor-594 and Alexa™ Fluor-647 conjugated secondary anti-mouse IgG1, anti-mouse IgG2B or anti-rabbit antibodies (Life technologies) were used for immunofluorescence. Horseradish peroxidase (HRP) conjugated anti-mouse or anti-rabbit secondary antibodies (Jackson Immunoresearch) were used with the ECL™ Prime Western Blotting Detection reagents (GE Healthcare). Densitometry of immunoblots was performed with ImageJ™.
To determine the effect of C15 on elF2α phosphorylation, C2C12 cell lysates cultured for twelve hours in the presence of sal003 (10 μM) or C15 (0.1 μM and 0.2 μM) were immunoblotted.

[4] = test system: P-elF2α dependent read-through of Atf4 uORFs (Atf4-fluc reporter) in HEK293 cells; assay: Atf4-luciferase reporter (Fluc/Rluc ratio) in transfected HEK293 cells; format: cell-based
Description: The Atf4- and Tacc3-luciferase constructs were made by cloning gBlock gene fragments (Integrated DNA Technologies) corresponding to 5′UTRs of Mus musculus Atf4 and Tacc3, fused to the 5′end of the fluc gene up to the Narl restriction enzyme site. Mutant versions of Atf4 and Tacc3 5′UTRs were designed with each ATG start codon of uORFs deleted. These 5′UTR gene fragments were cloned into Hindlll, Narl sites upstream of the firefly luciferase (fluc) gene in pGL3-promoter plasmids, thereby maintaining the final overlapping uORF with the main ORF for fluc (Promega™). FIG. 5A and FIG. 5B show a schematic of the formation of a pre-initiation complex that includes many factors including the a subunit (elF2α) that is dephosphorylated (FIG. 5A) or phosphorylated (FIG. 5B). The pre-initiation complex associates with the uORFs, where, if phosphorylated, translation initiation of the uORFs occurs upstream of Atf4 and continues to translate Atf4. However, if elF2α is dephosphorylated (FIG. 5A), no translation initiation occurs for Atf4 as the pre-initiation complex dissociates from the uORFs.
HEK293 cells were plated in 24-well plates at a density of 25,000 cells/well and incubated overnight. […] The cells were then lysed and the Fluc/Rluc ratio was determined using the Promega™ Dual-Luciferase Reporter kit (Madison, USA). […]

Dmd^mdx mice = assay: In vivo administration by osmotic pump in Dmd^mdx mouse model of Duchenne muscular dystrophy
Method: FIG. 20 is a schematic diagram of in vivo administration of C15 by an osmotic pump in the Dmd^mdx mouse model of Duchenne muscular dystrophy, specifically Alzet™ 2001 osmotic pumps were used to deliver 2.5 mg/kg/day of C15 with a vehicle containing 50:50 DMSO:[…] at a flow rate of 0.5 μL/hr by a subcutaneous implantation of the Alzet™ 2001 osmotic pumps into Dmd^mdx mouse, and 14 days later muscle was harvested for quantification by fluorescence of the myofibre CSA (red) and PAX7(+) (green) satellite cell compartment.
In this example, the effect of C15 on the dephosphorylated levels of elF2α was studied. Animal care practices were performed in accordance with the federal Canadian Council on Animal Care, as practiced by McGill University. All mice were maintained on a C57/BI6 background. Dmd^mdx mice, aged 8-10 weeks, were implanted (sub-cutaneously) with osmotic pumps (Alzet™) to deliver C15 at a rate of 2.5 mg/kg/day. C15 was dissolved in a 50:50 solution of DMSO:PEG400. At indicated time points, muscle was harvested for analysis by immunofluorescence.
as §2

satellite cells = assay: Ex vivo expansion of cultured cells; format: cell-based; conditions: sal003 concentrations lower than 10 μM
Method: Moreover, cells and single EDL myofibres were cultured in 39% Dulbecco's modified eagle medium (DMEM), 39% F12, 20% fetal calf serum (FCS) (Life Technologies), 2% UltroserG™ (Pall Life Sciences). C2C12 myoblasts were cultured in DMEM supplemented with 20% FCS. […]

| P-elF2α activity to enable read-through of uORFs after incubation at 37° C. (stability) ([4]; C15 10 μM, incubated at 37° C. for 0-3 weeks, HEK293 cells (FIG. 19)) | SMILES | fusion index (number of nuclei per myotube) ([1]; 0.2 μM C15, 7 days (FIG. 14)) | PAX7 expression of Dmd^mdx MuSCs ([1]; 0.2 μM C15, cultured 3 days (FIG. 10, 11)) | myocolony size ([1]; 0.2 μM C15, long periods of time (7 days; FIG. 12, 13)) | DDX6(+) RNA granules in PAX7-expressing MuSCs, culture of isolated MuSCs ([2]; 0.2 μM C15, 4-day culture (FIG. 9)) | DDX6(+) RNA granules in PAX7-expressing MuSCs, culture of single myofibres ([2]; 0.2 μM C15, after 6 h (FIG. 7, 8)) | P-elF2α levels (P-elF2α : total elF2α) ([3]; C2C12 cells, 12 hours, C15 0.1 to 0.2 μM vs sal003 10 μM (FIG. 15, 16)) | activity of increasing P-elF2α levels after incubation at 37° C. (stability) ([3]; C15 10 μM, incubated at 37° C. for 0-3 weeks, C2C12 cells (FIG. 17, 18)) | luciferase activity (Atf4-fluc reporter) ([4]; HEK293 cells, overnight, 10 μM, compared with sal003, C10 and DMSO (FIG. 6)) | MuSC associated RNA granules (EDL myofibres) (Dmd^mdx mice; 2.5 mg/kg/day C15, osmotic pump s.c., two weeks (FIG. 21)) | myofiber cross sectional area of treated muscle (Dmd^mdx mice; 2.5 mg/kg/day C15, two weeks) | numbers of central nucleated myofibres (Dmd^mdx mice; 2.5 mg/kg/day C15, two weeks) | numbers of PAX7-expressing MuSCs on single EDL myofibres (Dmd^mdx mice; 2.5 mg/kg/day C15, two weeks (FIG. 23)) | numbers of PAX7-expressing MuSCs on transverse sections of tibialis anterior (TA) (Dmd^mdx mice; 2.5 mg/kg/day C15, two weeks (FIG. 24)) | numbers of PAX7-expressing MuSCs on transverse sections of diaphragm (Dmd^mdx mice; 2.5 mg/kg/day C15, two weeks (FIG. 25)) | ex vivo expansion of cells (satellite cells) |
| --- | --- | --- | --- | --- | --- | --- | --- | --- | --- | --- | --- | --- | --- | --- | --- | --- |
| maintained | CC(C)(C)c1ccc(NC(=S)NC(NC(=O)/C=C/c2ccccc2)C(Cl)(Cl)Cl)cc1 (stereo not shown) [C15] | larger fusion index | maintain PAX7 expression | larger myocolonies | maintained | maintained | increased the P-elF2α levels to a level equivalent to 10 μM sal003 | maintained the activity of increasing P-elF2α levels | significantly increases luciferase activity, higher than sal003 and C10 | maintenance of MuSC associated RNA granules | increased | decreased | increased numbers | increased numbers | increased numbers |  |
|  | O=C(/C=C/c1ccccc1)NC(NC(=S)Nc1ccc(Cl)cc1)C(Cl)(Cl)Cl (stereo not shown) [sal003] |  |  |  |  |  |  |  |  |  |  |  |  |  |  | not possible to expand the cells ex vivo at sal003 concentrations lower than 10 μM |
